For orientation: IC50 means the point on the concentration scale where inhibition reaches its midpoint. Low readings indicate inhibition by little substance, high ones a need for much substance.

This assay deals with T1, TDO2 in A172 cancer cells (Homo sapiens, UniProt P48775).
T1 construct: endogenous in cells; host or cells: A172 cancer cells
Briefly: TDO2 Cellular Assay (kynurenine production in A172 cancer cells). Format: cell-based. Particulars: L-Trp 1 mM, 24 hours incubation, kynurenine at 490 nm. The method, then:
A172 cancer cells (3×10^4 per well) in 85 μL DMEM medium containing 10% FBS were seeded in a 96-well plate and incubated at 95% humidity and 5% CO2 at 37° C. for overnight. On the next day, L-Trp solution (10 μL, 1 mM final concentration) and serial dilutions of the test compounds and DMEM medium resulting in a total final volume of 100 μL each well. The test compounds were dissolved in DMSO and successively diluted with pH7.5 butter (with final DMSO concentration of 0.25%) resulting in final concentrations of the test compounds ranging from 0 to 25 μM (0, 2.5, 7.5, 25, 75, 250, 750, 2500, 7500, & 25000 nM). After 24 hours of incubation, 70 uL of the supernatant per well was transferred to a new 96 well plate. 8 μL of trichloroacetic acid (6.1 N) was mixed into each well and incubated at 50° C. for 30 min to hydrolyze N-formylkynurenine to kynurenine. The reaction mixture was then centrifuged for 10 min at 2500 RPM to remove sediments. 50 μL of the supernatant per well was transferred to another 96 well plate and mixed with 50 μL of 2% (w/v) p-dimethylaminobenzaldehyde in acetic acid. The yellow color derived from kynurenine was measured at 490 nm using a microplate reader. Percent inhibition of the test compounds was determined by measuring the decrease in kynurenine as compared to the control of DMSO vehicle, which was calculated by formula of (WC−WT)/WC, where WC is the mean absorbance of the control well minus blank well; WT is the mean absorbance of the test well minus the blank well. Data was analyzed by GraphPad Prism 5 and the IC50 values were obtained by non-linear regression.
The IC50 values of for Compounds disclosed are listed in Table 2, A′: ≤0.5 μM; B′: >0.5 μM and ≤1 μM; C′: >1.0 μM and ≤5 uM; and D′: >5 μM.

T1 sequence (P48775 whole entry): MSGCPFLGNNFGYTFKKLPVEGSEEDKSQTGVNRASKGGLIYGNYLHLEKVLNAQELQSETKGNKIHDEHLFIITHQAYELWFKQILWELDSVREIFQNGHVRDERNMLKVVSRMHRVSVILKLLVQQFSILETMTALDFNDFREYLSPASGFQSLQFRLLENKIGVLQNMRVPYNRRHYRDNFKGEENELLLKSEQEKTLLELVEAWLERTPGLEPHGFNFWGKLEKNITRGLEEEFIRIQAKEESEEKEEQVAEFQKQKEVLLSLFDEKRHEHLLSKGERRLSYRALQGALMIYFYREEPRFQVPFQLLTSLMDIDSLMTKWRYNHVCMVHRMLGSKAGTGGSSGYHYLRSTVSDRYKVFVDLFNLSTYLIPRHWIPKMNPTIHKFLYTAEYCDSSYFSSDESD

In turn, `CC1(C)C2CN(c3cc(Cl)cc4[nH]ncc34)CC2CN1S(C)(=O)=O` (racemic) [Example 1, 6-chloro-4-(4,4-dimethyl-5-(methylsulfonyl)hexahydropyrrolo[3,4-c]pyrrol-2(1H)-yl)-1H-indazole] came in with an IC50 of at most 500 nM. Turning to `CS(=O)(=O)N1C[C@@H]2CC(c3cc(Cl)cc4[nH]ncc34)=C[C@@H]2C1` (racemic) [Example 5, Racemic-6-chloro-4-((3aR,6aS)-2-(methylsulfonyl)-1,2,3,3a,4,6a-hexahydrocyclopenta[c]pyrrol-5-yl)-1H-indazole], the concentration for half-maximal inhibition (IC50) was at most 500 nM.

For the compound `CC1(C)[C@H]2CN(c3cc(Cl)cc4[nH]ncc34)C[C@H]2CN1C(N)=O` (racemic) [Example 31, Racemic-(3aS,6aR)-5-(6-chloro-1H-indazol-4-yl)-1,1-dimethylhexahydropyrrolo[3,4-c]pyrrole-2(1H)-carboxamide], the IC50 was at most 500 nM. Consider `CC1(C)[C@H]2CN(c3cc(Cl)cn4cncc34)C[C@H]2CN1S(C)(=O)=O` (racemic) [Example 49, Racemic-6-chloro-8-((3aR,6aS)-4,4-dimethyl-5-(methylsulfonyl)hexahydropyrrolo[3,4-c]pyrrol-2(1H)-yl)imidazo[1,5-a]pyridine], for which the IC50 was in the range of 1000 to 5000 nM. Regarding `CC1(C)[C@H]2CN(c3c(C(F)(F)F)ccn4cncc34)C[C@H]2CN1S(C)(=O)=O` (racemic) [Example 57, Racemic-8-((3aR,6aS)-4,4-dimethyl-5-(methylsulfonyl)hexahydropyrrolo[3,4-c]pyrrol-2(1H)-yl)-7-(trifluoromethyl)imidazo[1,5-a]pyridine], the IC50 was above 5000 nM. In turn, `CC(=O)N1C[C@@H]2CN(c3c(C(F)(F)F)ccn4cncc34)C[C@@H]2C1(C)C` (racemic) [Example 58, Racemic-1-((3aS,6aR)-1,1-dimethyl-5-(7-(trifluoromethyl)imidazo[1,5-a]pyridin-8-yl)hexahydropyrrolo[3,4-c]pyrrol-2(1H)-yl)ethanone] came in with an IC50 above 5000 nM. Take `CC(=O)N1C[C@H]2C[C@@H](c3cc(C(F)(F)F)cn4cncc34)C[C@H]2C1` [Example 4, 1-((3aR,5r,6aS)-5-(6-(trifluoromethyl)imidazo[1,5-a]pyridin-8-yl)hexahydrocyclopenta[c]pyrrol-2(1H)-yl)ethanone]: the IC50 was above 5000 nM. Then `CC1(C)C2CN(c3cc(Cl)cc4[nH]ncc34)CC2CN1S(=O)(=O)c1ccc(C#N)cc1` (stereo not drawn) [Example 26, 4-(5-(6-chloro-1H-indazol-4-yl)-1,1-dimethylhexahydropyrrolo[3,4-c]pyrrol-2(1H)-ylsulfonyl)benzonitrile], with 1000 to 5000 nM; and `CC1(C)C2CN(c3cc(Cl)cc4[nH]ncc34)CC2CN1C(=O)C1CC1` (stereo not drawn) [Example 29, (5-(6-chloro-1H-indazol-4-yl)-1,1-dimethylhexahydropyrrolo[3,4-c]pyrrol-2(1H)-yl)(cyclopropyl)methanone], with 500 to 1000 nM. For `O[C@@]1(c2cc(Cl)cc3[nH]ncc23)C[C@H]2CCC[C@H]2C1` [Example 30, (2r,3aR,6aS)-2-(6-chloro-1H-indazol-4-yl)octahydropentalen-2-ol] the value was at most 500 nM. `N#Cc1ccc(S(=O)(=O)N2C[C@H]3CN(c4cc(Cl)cc5[nH]ncc45)C[C@H]3C2)cc1` [Example 33, 4-(((3aR,6aS)-5-(6-chloro-1H-indazol-4-yl)hexahydropyrrolo[3,4-c]pyrrol-2(1H)-yl)sulfonyl)benzonitrile] had an IC50 above 5000 nM. Then `N#Cc1ccc(C(=O)N2C[C@@H]3CN(c4cc(Cl)cc5[nH]ncc45)C[C@@H]3C2)cc1` [Example 34, 4-((3aR,6aS)-5-(6-chloro-1H-indazol-4-yl)octahydropyrrolo[3,4-c]pyrrole-2-carbonyl)benzonitrile], with above 5000 nM; and `O=S(=O)(C1CC1)N1C[C@@H]2C[C@@](O)(c3cc(Cl)cc4[nH]ncc34)C[C@@H]2C1` [Example 37, (3aR,5r,6aS)-5-(6-chloro-1H-indazol-4-yl)-2-(cyclopropylsulfonyl)octahydrocyclopenta[c]pyrrol-5-ol], with at most 500 nM. In the case of `CC(C)(C)OC(=O)N1C[C@@H]2C[C@@](O)(c3cc(Cl)cc4[nH]ncc34)C[C@@H]2C1` [Example 54, (3aR,5r,6aS)-tert-butyl 5-(6-chloro-1H-indazol-4-yl)-5-hydroxyhexahydrocyclopenta[c]pyrrole-2(1H)-carboxylate], the IC50 is at most 500 nM. `O=C(C1CCCC1)N1C[C@@H]2C[C@@](O)(c3cc(Cl)cc4[nH]ncc34)C[C@@H]2C1` [Example 59, ((3aR,5r,6aS)-5-(6-chloro-1H-indazol-4-yl)-5-hydroxyhexahydrocyclopenta[c]pyrrol-2(1H)-yl)(cyclopentyl)methanone] came in with an IC50 of at most 500 nM. In turn, `O=C(C1CCC1)N1C[C@@H]2C[C@@](O)(c3cc(Cl)cc4[nH]ncc34)C[C@@H]2C1` [Example 60, ((3aR,5r,6aS)-5-(6-chloro-1H-indazol-4-yl)-5-hydroxyhexahydrocyclopenta[c]pyrrol-2(1H)-yl)(cyclobutyl)methanone] registered an IC50 of at most 500 nM.

`CC(C)OC(=O)N1C[C@@H]2C[C@@](O)(c3cc(Cl)cc4[nH]ncc34)C[C@@H]2C1` [Example 61, (3aR,5r,6aS)-isopropyl 5-(6-chloro-1H-indazol-4-yl)-5-hydroxyhexahydrocyclopenta[c]pyrrole-2(1H)-carboxylate] displayed an IC50 of at most 500 nM.

In the case of `O=C(C1CCCCC1)N1C[C@@H]2C[C@@](O)(c3cc(Cl)cc4[nH]ncc34)C[C@@H]2C1` [Example 62, ((3aR,5r,6aS)-5-(6-chloro-1H-indazol-4-yl)-5-hydroxyhexahydrocyclopenta[c]pyrrol-2(1H)-yl)(cyclohexyl)methanone], the half-inhibitory concentration (IC50) was at most 500 nM. For `CC(C)C(=O)N1C[C@@H]2C[C@@](O)(c3cc(Cl)cc4[nH]ncc34)C[C@@H]2C1` [Example 65, 1-((3aR,5r,6aS)-5-(6-chloro-1H-indazol-4-yl)-5-hydroxyhexahydrocyclopenta[c]pyrrol-2(1H)-yl)-2-methylpropan-1-one], the IC50 was at most 500 nM. `O=C([C@H]1CC[C@H](O)CC1)N1C[C@@H]2C[C@@](O)(c3cc(Cl)cc4[nH]ncc34)C[C@@H]2C1` [Example 66, ((3aR,5R,6aS)-5-(6-chloro-1H-indazol-4-yl)-5-hydroxyhexahydrocyclopenta[c]pyrrol-2(1H)-yl)((1r,4R)-4-hydroxycyclohexyl)methanone]: the IC50 was at most 500 nM. On to `COC(=O)N1C[C@@H]2C[C@@](O)(c3cc(Cl)cc4[nH]ncc34)C[C@@H]2C1` [Example 67, (3aR,5r,6aS)-methyl 5-(6-chloro-1H-indazol-4-yl)-5-hydroxyhexahydrocyclopenta[c]pyrrole-2(1H)-carboxylate], for which the IC50 is at most 500 nM. For `O=C(C1CCOC1)N1C[C@@H]2C[C@@](O)(c3cc(Cl)cc4[nH]ncc34)C[C@@H]2C1` (stereo partly drawn) [Example 68, ((3aR,5r,6aS)-5-(6-chloro-1H-indazol-4-yl)-5-hydroxyhexahydrocyclopenta[c]pyrrol-2(1H)-yl)(tetrahydrofuran-3-yl)methanone], the IC50 was at most 500 nM. For `O=C(CC1CC1)N1C[C@@H]2C[C@@](O)(c3cc(Cl)cc4[nH]ncc34)C[C@@H]2C1` [Example 69, 1-((3aR,5r,6aS)-5-(6-chloro-1H-indazol-4-yl)-5-hydroxyhexahydrocyclopenta[c]pyrrol-2(1H)-yl)-2-cyclopropylethanone], the concentration for half-maximal inhibition (IC50) is at most 500 nM.

`CCC(=O)N1C[C@@H]2C[C@@](O)(c3cc(Cl)cc4[nH]ncc34)C[C@@H]2C1` [Example 70, 1-((3aR,5r,6aS)-5-(6-chloro-1H-indazol-4-yl)-5-hydroxyhexahydrocyclopenta[c]pyrrol-2(1H)-yl)propan-1-one] gave an IC50 of at most 500 nM.

As for `CCS(=O)(=O)N[C@H]1[C@@H]2C[C@@](O)(c3cc(Cl)cc4[nH]ncc34)C[C@@H]21` [Example 71, N-((1R,3r,5S,6r)-3-(6-chloro-1H-indazol-4-yl)-3-hydroxybicyclo[3.1.0]hexan-6-yl)ethanesulfonamide], the IC50 is at most 500 nM. The compound `O=C(N[C@H]1[C@@H]2C[C@@](O)(c3cc(Cl)cc4[nH]ncc34)C[C@@H]21)C1CCOC1` (stereo partly drawn) [Example 72, N-((1R,3r,5S,6r)-3-(6-chloro-1H-indazol-4-yl)-3-hydroxybicyclo[3.1.0]hexan-6-yl)tetrahydrofuran-3-carboxamide] returned an IC50 of at most 500 nM. With `O=S(=O)(N[C@H]1[C@@H]2C[C@@](O)(c3cc(Cl)cc4[nH]ncc34)C[C@@H]21)C1CC1` [Example 73, N-((1R,3r,5S,6r)-3-(6-chloro-1H-indazol-4-yl)-3-hydroxybicyclo[3.1.0]hexan-6-yl)cyclopropanesulfonamide], the IC50 was at most 500 nM.

For the origin of these results see patent US11548868B2, “Heterocyclic compounds, compositions comprising heterocyclic compound, and methods of use thereof” (JS INNOPHARM (SHANGHAI) LTD, priority 2017, dated 2023).
